Assay results as given in patent US20260327264A1, “PEPTIDE INHIBITORS OF INTERLEUKIN-23 RECEPTOR” (Zealand Pharma A/S, priority 2023, published 2026).
Like-named read-outs stand apart in the source and are kept apart here. *1 amine or outer side, *2 acyl side, *3 side chain or, on linkers, in order; H or OH if unused. Where a SMILES comes first, the peptide text is derived from it. Bridges are numbered along the chain shown (N, C = ends). [ ]: non-standard residue; d: D form. The star is where a group is joined. 2Nal = N[C@@H](Cc1ccc2ccccc2c1)C(=O)O; AEF = NCCOc1ccc(C[C@H](N)C(=O)O)cc1; X1 = O=C(Cc1ccc(CN[*:1])cc1)[*:2]; 3Pal = N[C@@H](Cc1cccnc1)C(=O)O; αMeL = CC(C)C[C@](C)(N)C(=O)O; Orn = NCCC[C@H](N)C(=O)O; Pyrrolidide = C1CCN(*)C1; Dab = NCC[C@H](N)C(=O)O

Assays:
[1] = system: IL-23 mediated STAT3 signalling (DB cells); assay: Functional inhibition of IL-23 mediated STAT3 signalling (phospho-STAT3 Tyr705) in DB cells; type: cell-based, human; conditions: for hIL-23 (pSTAT3) antagonist % inhibition: Table 3-2, maximal inhibitory response, EC80 of hIL-23
Method in brief: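 Phospho-STAT3 in lysed DB cells quantified by MSD kit after 90 min exposure to EC80 human IL-23, following 15 min compound pretreatment (37° C, 5% CO2). IC50 and maximal inhibition derived from curves normalized between IL-23-only and buffer-only controls.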

[2] = Peptide stability in simulated gastric fluid (SGF); type: in vitro ADME; conditions: pig, pH 1.2, pepsin, 37° C.
Method in brief: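 Peptide (10 μM final) incubated at 37 °C in USP SGF, pH 1.2 with porcine pepsin 3.2 g/L; aliquots at 0, 1 and 4 h quenched in acidified acetonitrile.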

human IL-23R = target: T1, human IL-23R (Homo sapiens, UniProt Q5VWK5); assay: Binding assay: displacement of fluorophore (TAMRA)-labelled reference compound from human IL-23R (BRET, Nluc-IL23R fusion protein membranes); conditions: for Emax: read-out: % displacement (hIL-23R binding)
T1 construct: Nanoluc luciferase (Nluc); secretion signal encoded by the plasmid (not specified); expressed in transfected cells; crude membranes used in the assay
T1 sequence (Q5VWK5 22-629): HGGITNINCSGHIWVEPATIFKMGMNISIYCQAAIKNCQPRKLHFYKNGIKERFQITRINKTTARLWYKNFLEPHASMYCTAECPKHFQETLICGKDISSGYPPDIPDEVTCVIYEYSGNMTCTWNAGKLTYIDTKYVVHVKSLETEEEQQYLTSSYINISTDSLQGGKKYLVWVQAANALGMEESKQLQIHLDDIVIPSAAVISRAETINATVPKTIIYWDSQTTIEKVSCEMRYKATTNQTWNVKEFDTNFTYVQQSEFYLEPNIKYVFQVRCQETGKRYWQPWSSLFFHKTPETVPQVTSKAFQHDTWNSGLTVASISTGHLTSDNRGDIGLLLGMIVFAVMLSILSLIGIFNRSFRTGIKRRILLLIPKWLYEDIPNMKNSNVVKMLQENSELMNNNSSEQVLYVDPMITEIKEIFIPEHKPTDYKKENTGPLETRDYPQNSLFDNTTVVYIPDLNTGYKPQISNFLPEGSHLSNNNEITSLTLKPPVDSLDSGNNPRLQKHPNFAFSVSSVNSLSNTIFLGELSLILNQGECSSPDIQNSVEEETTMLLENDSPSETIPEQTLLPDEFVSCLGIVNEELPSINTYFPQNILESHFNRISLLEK

[3] = Peptide stability in simulated intestinal fluid (SIF); type: in vitro ADME; conditions: pig, simulated intestinal fluid, SIF, pH 6.8, pancreatin, 37° C., 10 μM; for remaining at 4 h, 10 µM: read-out: SIF (% remaining 4 h)
Method in brief: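 Peptide at 10 μM final in USP-type SIF (10 g/L porcine pancreatin, phosphate buffer pH 6.8), shaken at 37 °C. Samples at 0, 1 and 4 h quenched in acetonitrile/0.1% formic acid and analysed by LC-HRMS. Percent remaining calculated from absolute peak areas relative to time zero.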

[4] = Table 3-2, EC80 of hIL-23, read-out: hIL-23 (pSTAT3) antagonist IC50

Compound	IC50 ([1]; EC80 of hIL-23, read-out: IC50 (pSTAT3))	IC50 [1, 4]	remaining at 1 h, 10 µM [2]	Emax (human IL-23R)	remaining at 1 h, 10 µM [3]	IC50 (human IL-23R)	remaining at 4 h, 10 µM [2]	remaining at 4 h, 10 µM [3]	hIL-23 (pSTAT3) antagonist % inhibition [1]
CC(C)C[C@]1(C)NC(=O)[C@H](Cc2ccc3ccccc3c2)NC(=O)[C@H](Cc2ccc(OCCN)cc2)NC(=O)[C@@H]2CCNC(=O)CC[C@H](NC(=O)[C@H](CO)NC(=O)Cc3ccc(cc3)CNC(=O)CC[C@@H](C(=O)N[C@@H](CCN)C(=O)N[C@H](Cc3c[nH]cn3)C(N)=O)NC1=O)C(=O)N[C@@H](Cc1c[nH]c3ccccc13)C(=O)N[C@@H](CCC(N)=O)C(=O)N2 [Compound 13, [4-Aminomethyl-phenylacetyl](1c)*SE(2c)WQ[Dab](2c)[Y(2-aminoethoxy)][2-Nal][2-Me-Leu]E(1c)[Dab][{d}H]-[NH2]]	6.8 nM	6.8 nM	94%	100%	84%				99%
CC(C)C[C@]1(C)NC(=O)[C@H](Cc2ccc3ccccc3c2)NC(=O)[C@H](Cc2ccc(OCCN)cc2)NC(=O)[C@@H]2CCNC(=O)CC[C@H](NC(=O)[C@H](CO)NC(=O)Cc3ccc(cc3)CNC(=O)CC[C@@H](C(=O)N[C@@H](CCN)C(=O)N[C@@H](Cc3cn(C)cn3)C(N)=O)NC1=O)C(=O)N[C@@H](Cc1c[nH]c3ccccc13)C(=O)N[C@@H](CCC(N)=O)C(=O)N2 [Compound 14, [4-Aminomethyl-phenylacetyl](1c)*SE(2c)WQ[Dab](2c)[Y(2-aminoethoxy)][2-Nal][2-Me-Leu]E(1c)[Dab][H(Me)]-[NH2]]		7.2 nM	93%	102%	98%	0.11 nM			99%
CNC(=O)[C@H](Cc1cccnc1)NC(=O)[C@H](CCN)NC(=O)[C@@H]1CCC(=O)NCc2ccc(cc2)CC(=O)N[C@@H](CO)C(=O)N[C@H]2CCC(=O)NCC[C@H](NC(=O)[C@H](CCNC(C)=O)NC(=O)[C@H](Cc3c[nH]c4ccccc34)NC2=O)C(=O)N[C@@H](Cc2ccc(OCCN)cc2)C(=O)N[C@@H](Cc2ccc3ccccc3c2)C(=O)N[C@@](C)(CC(C)C)C(=O)N1 [Compound 25, [4-Aminomethyl-phenylacetyl](1c)*SE(2c)W[Dab(Ac)][Dab](2c)[Y(2-aminoethoxy)][2-Nal][2-Me-Leu]E(1c)[Dab][3-(3-Pyridyl)-Ala]-[NHMe]] ([X1]SEW[Dab](Ac)[Dab][AEF][2Nal][αMeL]E[Dab][3Pal]-NHMe; lactam 3-6, N-10)		0.076 nM	93%		88%	0.011 nM			100%
CNC(=O)[C@H](Cc1cccnc1)NC(=O)[C@H](CCN)NC(=O)[C@@H]1CCC(=O)NCc2ccc(cc2)CC(=O)N[C@@H](CO)C(=O)N[C@H]2CCC(=O)NCC[C@H](NC(=O)[C@H](CCC(=O)N3CCCC3)NC(=O)[C@H](Cc3c[nH]c4ccccc34)NC2=O)C(=O)N[C@@H](Cc2ccc(OCCN)cc2)C(=O)N[C@@H](Cc2ccc3ccccc3c2)C(=O)N[C@@](C)(CC(C)C)C(=O)N1 [Compound 27, [4-Aminomethyl-phenylacetyl](1c)*SE(2c)W[Q(pyrrolidin)][Dab](2c)[Y(2-aminoethoxy)][2-Nal][2-Me-Leu]E(1c)[Dab][3-(3-Pyridyl)-Ala]-[NHMe]] ([X1]SEWE(Pyrrolidide)[Dab][AEF][2Nal][αMeL]E[Dab][3Pal]-NHMe; lactam 3-6, N-10)		0.23 nM	101%	97%	90%	0.017 nM	96%	85%	100%
CNC(=O)[C@H](Cc1cccnc1)NC(=O)[C@H](CCN)NC(=O)[C@@H]1CCC(=O)NCc2ccc(cc2)CC(=O)N[C@@H](CO)C(=O)N[C@H]2CCC(=O)NCC[C@H](NC(=O)[C@H](CCC(=O)N(C)C)NC(=O)[C@H](Cc3c[nH]c4ccccc34)NC2=O)C(=O)N[C@@H](Cc2ccc(OCCN)cc2)C(=O)N[C@@H](Cc2ccc3ccccc3c2)C(=O)N[C@@](C)(CC(C)C)C(=O)N1 [Compound 30, [4-Aminomethyl-phenylacetyl](1c)*SE(2c)W[Q(2Me)][Dab](2c)[Y(2-aminoethoxy)][2-Nal][2-Me-Leu]E(1c)[Dab][3-(3-Pyridyl)-Ala]-[NHMe]] ([X1]SEWE(NMe2)[Dab][AEF][2Nal][αMeL]E[Dab][3Pal]-NHMe; lactam 3-6, N-10)		0.077 nM	92%	104%	94%		89%		103%

Now those with a lower IC50 [1, 4], led by results:

IC50 ([1]; EC80 of hIL-23, read-out: IC50 (pSTAT3))	IC50 [1, 4]	remaining at 1 h, 10 µM [2]	Emax (human IL-23R)	remaining at 1 h, 10 µM [3]	IC50 (human IL-23R)	remaining at 4 h, 10 µM [2]	remaining at 4 h, 10 µM [3]	Compound	hIL-23 (pSTAT3) antagonist % inhibition [1]
	0.06 nM	101%	97%	77%		99%		CNC(=O)[C@H](Cc1cccnc1)NC(=O)[C@H](CO)NC(=O)[C@@H]1CCC(=O)NCc2ccc(cc2)CC(=O)N[C@@H](CO)C(=O)N[C@H]2CCC(=O)NCC[C@H](NC(=O)[C@H](CCC(N)=O)NC(=O)[C@H](Cc3c[nH]c4ccccc34)NC2=O)C(=O)N[C@@H](Cc2ccc(OCCN)cc2)C(=O)N[C@@H](Cc2ccc3ccccc3c2)C(=O)N[C@@](C)(CC(C)C)C(=O)N1 [Compound 31, [4-Aminomethyl-phenylacetyl](1c)*SE(2c)WQ[Dab](2c)[Y(2-aminoethoxy)][2-Nal][2-Me-Leu]E(1c)S[3-(3-Pyridyl)-Ala]-[NHMe]] ([X1]SEWQ[Dab][AEF][2Nal][αMeL]ES[3Pal]-NHMe; lactam 3-6, N-10)	101%
	0.058 nM	93%	97%	91%		90%	89%	CNC(=O)[C@H](Cc1cccnc1)NC(=O)[C@H](CCN)NC(=O)[C@@H]1CCC(=O)NCc2ccc(cc2)CC(=O)N[C@@H](CO)C(=O)N[C@H]2CCC(=O)NCC[C@H](NC(=O)[C@H](CCCCNC(C)=O)NC(=O)[C@H](Cc3c[nH]c4ccccc34)NC2=O)C(=O)N[C@@H](Cc2ccc(OCCN)cc2)C(=O)N[C@@H](Cc2ccc3ccccc3c2)C(=O)N[C@@](C)(CC(C)C)C(=O)N1 [Compound 24, [4-Aminomethyl-phenylacetyl](1c)*SE(2c)W[K(Ac)][Dab](2c)[Y(2-aminoethoxy)][2-Nal][2-Me-Leu]E(1c)[Dab][3-(3-Pyridyl)-Ala]-[NHMe]] ([X1]SEWK(Ac)[Dab][AEF][2Nal][αMeL]E[Dab][3Pal]-NHMe; lactam 3-6, N-10)	98%
	0.052 nM	100%	97%	106%	0.011 nM			CNC(=O)[C@H](Cc1cccnc1)NC(=O)[C@H](CCN)NC(=O)[C@@H]1CCC(=O)NCc2ccc(cc2)CC(=O)N[C@@H](CO)C(=O)N[C@H]2CCC(=O)NCC[C@H](NC(=O)[C@H](CCCN)NC(=O)[C@H](Cc3c[nH]c4ccccc34)NC2=O)C(=O)N[C@@H](Cc2ccc(OCCN)cc2)C(=O)N[C@@H](Cc2ccc3ccccc3c2)C(=O)N[C@@](C)(CC(C)C)C(=O)N1 [Compound 28, [4-Aminomethyl-phenylacetyl](1c)*SE(2c)W[Orn][Dab](2c)[Y(2-aminoethoxy)][2-Nal][2-Me-Leu]E(1c)[Dab][3-(3-Pyridyl)-Ala]-[NHMe]] ([X1]SEW[Orn][Dab][AEF][2Nal][αMeL]E[Dab][3Pal]-NHMe; lactam 3-6, N-10)	101%
	0.034 nM		94%	99%		103%		CNC(=O)[C@H](Cc1cccnc1)NC(=O)[C@H](CCO)NC(=O)[C@@H]1CCC(=O)NCc2ccc(cc2)CC(=O)N[C@@H](CO)C(=O)N[C@H]2CCC(=O)NCC[C@H](NC(=O)[C@H](CCC(N)=O)NC(=O)[C@H](Cc3c[nH]c4ccccc34)NC2=O)C(=O)N[C@@H](Cc2ccc(OCCN)cc2)C(=O)N[C@@H](Cc2ccc3ccccc3c2)C(=O)N[C@@](C)(CC(C)C)C(=O)N1 [Compound 36, [4-Aminomethyl-phenylacetyl](1c)*SE(2c)WQ[Dab](2c)[Y(2-aminoethoxy)][2-Nal][2-Me-Leu]E(1c)[hSer][3-(3-Pyridyl)-Ala]-[NHMe]]	103%
